Test results from patent publication US5100905A, “Method for inhibiting growth of bacteria, fungi or algae by treatment with biocide composition” (Rohm and Haas Company, priority 1991, dated 1992).
Like-named read-outs stand apart in the source and are kept apart here.

Key:
[1] = Growth inhibition / minimum inhibitory concentration (MIC) by 2-fold serial dilutions in Trypticase Soy Broth, 3 inoculations; format: cell-based; conditions: read-out: End-point activity (MIC) QA (573 alone); for Growth after inoculation: key: -: growth inhibited; +: growth not inhibited
Description: (§1) Each single culture was inoculated to TSB agar slants and incubated for 2 days at 30° C. for C. albicans and all bacteria except E. coli and S. aureus, which were at 37° C., and incubated for 10-14 days at 25° C. for fungal cultures. The bacteria and fungi were then washed off the slants with phosphate buffer (0.125 M, pH 7.2) and inoculated into each test tube containing a given concentration and ratio of 573 and 886 to make final cell concentration of about 2×10^7 bacteria and 2×10^6 fungi per ml. […] Seven days after inoculation, 5 microliter of sample from each test tube (containing about 10^5 bacteria and 10^4 fungi from original inoculation) was removed and assessed for viable organisms by 1:50 dilution into TSB medium and checked for regrowth. No viable organisms were detected from the test tubes where MICs were observed. […] Each test tube was reinoculated 2 more times (a total of 3 inoculations) to determine the capacity and the longlasting activity of the combinations.
(§2) As shown, a wide range of concentration and ratios was tested. More importantly all the critical end-point activities for the combinations were covered. […] Thus, the end-point activities are based on the minimum concentrations of a given ratio of combination product that inhibit all three inoculations.

[2] = test system: mixture of the following 12 microorganisms: Escherichia coli, Candida albicans, Pseudomonas oleovarans, Pseudomonas aeruginosa, Staphylococcus aureus …; assay: as above; format: cell-based
Description: as §1, §2

[3] = Expt. 1, all three inoculations
[4] = Expt. 2, all three inoculations

Cn1sccc1=O [compound 573, 2-methyl-4-isothiazolin-3-one]
MIC [1, 3]: 500 µg/mL | MIC [1, 4]: 125 µg/mL | Growth after inoculation ([2]; Expt. 1, 1st inoculation, 573(A) 0.5 ppm): + | Growth after inoculation ([2]; Expt. 1, 1st inoculation, 573(A) 1.0 ppm): + | Growth after inoculation ([2]; Expt. 1, 1st inoculation, 573(A) 2.0 ppm): + | Growth after inoculation ([2]; Expt. 1, 1st inoculation, 573(A) 3.9 ppm): + | Growth after inoculation ([2]; Expt. 1, 1st inoculation, 573(A) 9.8 ppm): + | Growth after inoculation ([2]; Expt. 1, 1st inoculation, 573(A) 15.6 ppm): + | Growth after inoculation ([2]; Expt. 1, 1st inoculation, 573(A) 31.2 ppm): + | Growth after inoculation ([2]; Expt. 1, 1st inoculation, 573(A) 62.5 ppm): + | Growth after inoculation ([2]; Expt. 1, 1st inoculation, 573(A) 125.0 ppm): + | Growth after inoculation ([2]; Expt. 1, 1st inoculation, 573(A) 250.0 ppm): - | Growth after inoculation ([2]; Expt. 1, 1st inoculation, 573(A) 500.0 ppm): - | Growth after inoculation ([2]; Expt. 1, 2nd inoculation, 573(A) 0.5 ppm): + | Growth after inoculation ([2]; Expt. 1, 2nd inoculation, 573(A) 1.0 ppm): + | Growth after inoculation ([2]; Expt. 1, 2nd inoculation, 573(A) 2.0 ppm): + | Growth after inoculation ([2]; Expt. 1, 2nd inoculation, 573(A) 3.9 ppm): + | Growth after inoculation ([2]; Expt. 1, 2nd inoculation, 573(A) 9.8 ppm): + | Growth after inoculation ([2]; Expt. 1, 2nd inoculation, 573(A) 15.6 ppm): + | Growth after inoculation ([2]; Expt. 1, 2nd inoculation, 573(A) 31.2 ppm): + | Growth after inoculation ([2]; Expt. 1, 2nd inoculation, 573(A) 62.5 ppm): + | Growth after inoculation ([2]; Expt. 1, 2nd inoculation, 573(A) 125.0 ppm): + | Growth after inoculation ([2]; Expt. 1, 2nd inoculation, 573(A) 250.0 ppm): + | Growth after inoculation ([2]; Expt. 1, 2nd inoculation, 573(A) 500.0 ppm): - | Growth after inoculation ([2]; Expt. 1, 3rd inoculation, 573(A) 0.5 ppm): + | Growth after inoculation ([2]; Expt. 1, 3rd inoculation, 573(A) 1.0 ppm): + | Growth after inoculation ([2]; Expt. 1, 3rd inoculation, 573(A) 2.0 ppm): + | Growth after inoculation ([2]; Expt. 1, 3rd inoculation, 573(A) 3.9 ppm): + | Growth after inoculation ([2]; Expt. 1, 3rd inoculation, 573(A) 9.8 ppm): + | Growth after inoculation ([2]; Expt. 1, 3rd inoculation, 573(A) 15.6 ppm): + | Growth after inoculation ([2]; Expt. 1, 3rd inoculation, 573(A) 31.2 ppm): + | Growth after inoculation ([2]; Expt. 1, 3rd inoculation, 573(A) 62.5 ppm): + | Growth after inoculation ([2]; Expt. 1, 3rd inoculation, 573(A) 125.0 ppm): + | Growth after inoculation ([2]; Expt. 1, 3rd inoculation, 573(A) 250.0 ppm): + | Growth after inoculation ([2]; Expt. 1, 3rd inoculation, 573(A) 500.0 ppm): - | End-point activity (MIC) Qa (573 in the mixture of 573 and 886) [2, 3]: 500.0 ppm | Growth after inoculation ([2]; Expt. 2, 1st inoculation, 573(A) 0.5 ppm): + | Growth after inoculation ([2]; Expt. 2, 1st inoculation, 573(A) 1.0 ppm): + | Growth after inoculation ([2]; Expt. 2, 1st inoculation, 573(A) 2.0 ppm): + | Growth after inoculation ([2]; Expt. 2, 1st inoculation, 573(A) 3.9 ppm): + | Growth after inoculation ([2]; Expt. 2, 1st inoculation, 573(A) 9.8 ppm): + | Growth after inoculation ([2]; Expt. 2, 1st inoculation, 573(A) 15.6 ppm): + | Growth after inoculation ([2]; Expt. 2, 1st inoculation, 573(A) 31.2 ppm): + | Growth after inoculation ([2]; Expt. 2, 1st inoculation, 573(A) 62.5 ppm): + | Growth after inoculation ([2]; Expt. 2, 1st inoculation, 573(A) 125.0 ppm): - | Growth after inoculation ([2]; Expt. 2, 1st inoculation, 573(A) 250.0 ppm): - | Growth after inoculation ([2]; Expt. 2, 1st inoculation, 573(A) 500.0 ppm): - | Growth after inoculation ([2]; Expt. 2, 2nd inoculation, 573(A) 0.5 ppm): + | Growth after inoculation ([2]; Expt. 2, 2nd inoculation, 573(A) 1.0 ppm): + | Growth after inoculation ([2]; Expt. 2, 2nd inoculation, 573(A) 2.0 ppm): + | Growth after inoculation ([2]; Expt. 2, 2nd inoculation, 573(A) 3.9 ppm): + | Growth after inoculation ([2]; Expt. 2, 2nd inoculation, 573(A) 9.8 ppm): + | Growth after inoculation ([2]; Expt. 2, 2nd inoculation, 573(A) 15.6 ppm): + | Growth after inoculation ([2]; Expt. 2, 2nd inoculation, 573(A) 31.2 ppm): + | Growth after inoculation ([2]; Expt. 2, 2nd inoculation, 573(A) 62.5 ppm): + | Growth after inoculation ([2]; Expt. 2, 2nd inoculation, 573(A) 125.0 ppm): - | Growth after inoculation ([2]; Expt. 2, 2nd inoculation, 573(A) 250.0 ppm): - | Growth after inoculation ([2]; Expt. 2, 2nd inoculation, 573(A) 500.0 ppm): - | Growth after inoculation ([2]; Expt. 2, 3rd inoculation, 573(A) 0.5 ppm): + | Growth after inoculation ([2]; Expt. 2, 3rd inoculation, 573(A) 1.0 ppm): + | Growth after inoculation ([2]; Expt. 2, 3rd inoculation, 573(A) 2.0 ppm): + | Growth after inoculation ([2]; Expt. 2, 3rd inoculation, 573(A) 3.9 ppm): + | Growth after inoculation ([2]; Expt. 2, 3rd inoculation, 573(A) 9.8 ppm): + | Growth after inoculation ([2]; Expt. 2, 3rd inoculation, 573(A) 15.6 ppm): + | Growth after inoculation ([2]; Expt. 2, 3rd inoculation, 573(A) 31.2 ppm): + | Growth after inoculation ([2]; Expt. 2, 3rd inoculation, 573(A) 62.5 ppm): + | Growth after inoculation ([2]; Expt. 2, 3rd inoculation, 573(A) 125.0 ppm): - | Growth after inoculation ([2]; Expt. 2, 3rd inoculation, 573(A) 250.0 ppm): - | Growth after inoculation ([2]; Expt. 2, 3rd inoculation, 573(A) 500.0 ppm): - | End-point activity (MIC) Qa (573 in the mixture of 573 and 886) [2, 4]: 125.0 ppm | Contribution to the overall activity of 886 ([2]; at very low concentrations (<8 ppm)): does not contribute significantly to the overall activity of 886
